Source: US12502369B2, “Methods of cancer treatment” (K-GEN, INC., priority 2015, dated 2025)
Entries after “also recorded” stand apart in the source; their conditions may differ. Read-outs that look alike come from different tables or passages of the source.

Tests used:
Format in all cases: cell-based
AsPC-1 = assay: Proliferation assay (CellTiter Glo), AsPC-1; conditions: for Top inhibition %: 96 hours
Protocol: (§1) Briefly, cells at a density of 1,000-10,000 cells/well were seeded in 96-well plates and incubated at 37′C for 24 hours. A series of 9 different concentrations of compound stocks (500×) were created by 3-fold serial dilution in DMSO. These compounds were further diluted in culture media and then added to cells so that the final DMSO concentration was 0.2%. After 96 hours of incubation, 50 μL of CellTiter Glo reagent (Promega) was added to each well and luminescence was measured after 10 minutes using EnVision (PerkinElmer). […] The dose range for most compounds was 4.6 nM-30 μM. The dose ranges for some compounds were adjusted downward to 0.46 nM-3 μM or 0.08 nM-0.5 μM or 0.03 nM-0.2 μM. Luminescence from cells treated with […] alone was set as Max and % of inhibition was calculated as follows: Inhibition %=(Max-Sample value)/Max*100. Data was analyzed using XL-fit software (ID Business Solutions Ltd.) and EC50, relative EC50, and % of top inhibition were calculated. The results are shown in Tables 3-6 for pancreatic cancer, lung cancer, colon/gastric cancer, and leukemia cell lines.

Panc2.13 = assay: Proliferation assay (CellTiter Glo), Panc2.13; conditions: for Top inhibition %: 96 hours
Protocol: as §1

H358 = assay: Proliferation assay (CellTiter Glo), H358; conditions: for Top inhibition %: 96 hours
Protocol: as §1

CCRF-CEM = assay: Proliferation assay (CellTiter Glo), CCRF-CEM; conditions: for Top inhibition %: 96 hours
Protocol: as §1

A549 cells = assay: Soft agar colony formation assay; conditions: 7-10 days, 9-point dilution series
Protocol: To prepare the base agar layer (0.6%), melted 1.2% agar solution was mixed 1:1 (v/v) with 2×DMEM/20% FBS medium in a tube by inverting several times and 50 μL of the mixture was immediately transferred to a well in a 96-well flat-bottom microplate. The plate was placed at 4° C. for 30 minutes to allow the base agar layer to solidify. Then, the cell agar layer (agar 0.4%) was prepared by transferring 75 μL of the cell and agar mixture containing 1:1:1 (v/v/v) of 1.2% agar solution, 2×DMEM/20% FBS and cell suspension (0.4-4×10^5/mL) to each well of the plates so that each well contained 1000-10000 cells per well. The plates were placed at 4° C. for 15 minutes and then 75 μL of media were added to each well. After incubating the plates overnight in a CO2 incubator, 50 μL of media with or without 5× final concentrations of compounds were added to each well. Each compound was tested in 9-point 3-fold dilution series. The plates were incubated for 7-10 days at 37° C. At the end of incubation period, 28 μL of Calcein AM solution (5 μM) was added to the center of each well. The plates were incubated at 37° C. for 45 minutes before scanning on Acumen (TTP Labtech). Each compound was tested in triplicates. Data was analyzed and compound EC50s were calculated using GraphPad Prism 5.

[1] = system: PKC substrates in A549 cells; assay: Global PKC activation (phosphorylated PKC substrates), Western blot, A549; conditions: 30 minutes, Phospho-PKC substrate Motif MultiMab
Protocol: (§2) A549 lung cancer cells (˜3 million cells) were seeded in 10 cm tissue culture dishes and grown overnight. Cells were then treated with different drugs at indicated concentrations (see FIG. 9A for global activation of PKC and FIG. 10 for activation of PKC isoforms) for 30 minutes. Panc2.13 pancreatic cells (˜5 million) were seeded and treated as in FIG. 9B for global activation of PKC. Cell lysate preparation, protein quantitation, SDS-PAGE, and Western blotting procedures are described in Example 2. Primary antibodies used in this Example and later Examples of this application are shown in Table A. Western blot membranes were scanned using Odyssey® Imaging System (Licor Biosciences) if secondary antibodies Anti-mouse IgG Dylight 800 conjugate or Anti-rabbit IgG DyLight 680 conjugate (1:10000)(Cell signaling or similar IR 2nd antibodies from different vendors) were used. Alternatively, Imagequant LAS4000 (GE) was used to scan membranes if secondary antibodies Anti-mouse IgG HRP conjugate or Anti-rabbit IgG HRP conjugate (dilutions from 1:2000-1:10000) were used.

[2] = system: PKC substrates in Panc2.13 cells; assay: Global PKC activation (phosphorylated PKC substrates), Western blot, Panc2.13; conditions: Phospho-(Ser) PKC Substrate Antibody
Protocol: as §2

[3] = system: PKC isoforms in A549 cells; assay: Activation of PKC isoforms, Western blot, A549; conditions: 30 minutes; for P-PKC (pan)(βII Ser660) and P-PKCα/β (Thr638/641): high levels already in DMSO treated cells
Protocol: as §2

PKCδ = PKCδ Tyr311 phosphorylation in A549, HCT116, SW620, Panc02.13 cells, Western blot; conditions: 30 minutes
Protocol: Non-cancerous lung fibroblast cell line HFL-1 or cancer cells (2-8 million cells) were seeded in 10 cm dishes and grown overnight so that the cells were about 40-80% confluent before treatment with the compound. Cells were then treated with different drugs at indicated concentrations (see descriptions for FIG. 11 and FIG. 12) for 30 minutes. Cell lysate preparation, protein quantitation, SDS-PAGE, and Western blotting procedures are described in Example 2 and 4. Primary antibodies used in this Example and later Examples of this application are shown in Table A. Secondary antibodies Anti-mouse IgG HRP conjugate or Anti-rabbit IgG HRP conjugate (dilutions from 1:2000-1:10000) were used. Western blot membranes were scanned using Imagequant LAS4000 (GE). The results are shown in FIG. 11A and FIG. 11B for HFL-1 cells and FIG. 11C and FIG. 12 for A549 cells.

lymphoma cell lines = assay: Proliferation assay, 9 lymphoma cell lines; conditions: for IC50: among the sensitive lymphoma cell lines, read-out: IC50 ranges
Protocol: PKC activators were tested in 9 lymphoma cell lines (Table 10). Proliferation assays were performed as described in Example 1.

CaMKii (Thr286) = assay: CaMKii phosphorylation in pancreatic cancer cell lines, Western blot; conditions: Panc1 or Panc2.13 cells; 24 or 48 hours; K-101A 0.5 and 2.5 μM, K-102 0.1 and 0.5 μM
Protocol: Cells were lysed in a protein lysis buffer (1 ml of 10×TNE [20 mL 1M Tris pH7.5; 30 mL 5M NaCl; 2 mL 0.5M EDTA; 48 mL d2H2O], 1 ml of 10% NP40, 7.7 mL of dH2O, 100 μL of 10× Protease inhibitors, 100 μL of 10× Phosphatase inhibitors, and 10 μl DTT). Protein quantification, SDS-PAGE, and Western blot procedures were performed as described in Example 2. […] The effect was more apparent at 48 hours. Phospho-CaMKii (T286) is a marker for activation of CaMKii kinase in the Wnt/Ca^2′ signaling pathway when K-Ras and CaM are dissociated (Wang et al., 2015, Cell. 163(5):1237-51).

[4] = absolute EC50, 96 hours, read-out: Ab EC50
[5] = relative EC50, 96 hours, read-out: Re EC50
[6] = 9 lymphoma cell lines of Table 10

Row | Structure (SMILES) | Top inhibition % (AsPC-1) [%] | Top inhibition % (Panc2.13) [%] | EC50 (Panc2.13; [4]) [nM] | EC50 (Panc2.13; [5]) [nM] | Top inhibition % (H358) [%] | Top inhibition % (CCRF-CEM) [%] | number of colonies formed in soft agar (A549 cells) | phosphorylation of PKC substrates (global activation of PKC) [1] | phosphorylation of PKC substrates (global activation of PKC) [2] | P-PKCδ (Thr505) and P-PKCδ/θ (Ser643/676) [3] | P-PKC (pan)(βII Ser660) and P-PKCα/β (Thr638/641) [3] | PKCδ activation, phosphorylation at Tyr311 (PKCδ) | sensitivity of lymphoma cell lines (lymphoma cell lines; [6]) | sensitivity of lymphoma cell lines (lymphoma cell lines; Daudi and Raji) | IC50 (lymphoma cell lines) [nM] | phosphorylation on CaMKii at Thr286 (CaMKii (Thr286)) | further results
1 | CC(=O)OCC1=C[C@H]2[C@@H]3C(C)(C)[C@]3(OC(C)=O)C[C@@H](C)[C@]2(O)C2C=C(C)C(=O)[C@@]2(O)C1 (stereo partly drawn) [Compound K-101E] | 35.2 | 49.8 | > 30000 | 44 | 47.9 | 34.3 | reduced the number of colonies | nearly no effect | nearly no effect | no effects |  |  |  |  |  |  | EC50 (AsPC-1; [4]): > 30000 nM; EC50 (AsPC-1; [5]): 2780 nM; EC50 (H358; [4]): > 30000 nM; EC50 (H358; [5]): 1250 nM; EC50 (CCRF-CEM; [4]): > 30000 nM; EC50 (CCRF-CEM; [5]): 270 nM
2 | C/C=C(/C)C(=O)O[C@H]1C(C)=C[C@]23C(=O)[C@@H](C=C(CO)[C@@H](O)[C@]12O)[C@H]1[C@@H](C[C@H]3C)C1(C)C [Compound K-102, Ingenol-3-angelate, reference compound] |  |  |  |  |  |  | reduced the number of colonies | induced dose-dependent phosphorylation | induced dose-dependent phosphorylation | dose-dependent increases | no further increases | observed for PKC activator insensitive cell lines HCT116 and SW620 but not as significantly for sensitive cell lines A549 and Pan 02,13; also recorded: observed for cell lines HCT116 and SW620 but not as significantly for cell lines A549 and Panc02.13 | Seven lymphoma cell lines were very sensitive | not sensitive | 0.8 to 5 | induced phosphorylation | 
3 | CC(=O)O[C@@]12C[C@@H](C)[C@]3(O)C4C=C(C)C(=O)[C@@]4(O)CC(CO)=C[C@H]3[C@@H]1C2(C)C (stereo partly drawn) [Compound K-101A, Prostratin] | 32.4 | 43.4 | > 30000 | 17 | 56.4 | 35.9 | reduced the number of colonies | induced dose-dependent phosphorylation | induced dose-dependent phosphorylation | dose-dependent increases | no further increases | observed for cell lines HCT116 and SW620 but not as significantly for cell lines A549 and Pan 02,13; also recorded: observed for cell lines HCT116 and SW620 but not as significantly for cell lines A549 and Panc02.13 | Seven lymphoma cell lines were very sensitive | not sensitive | 77 to 284 | induced phosphorylation | EC50 (AsPC-1; Homo sapiens, ASPC1, absolute EC50, 96 hours, read-out: Ab EC50): > 30000 nM; EC50 (AsPC-1; Homo sapiens, ASPC1, relative EC50, 96 hours, read-out: Re EC50): 270 nM; EC50 (H358; Homo sapiens, NCI-H358, absolute EC50, 96 hours, read-out: Ab EC50): 4900 nM; EC50 (H358; Homo sapiens, NCI-H358, relative EC50, 96 hours, read-out: Re EC50): 160 nM; EC50 (CCRF-CEM; Homo sapiens, absolute EC50, 96 hours, read-out: Ab EC50): > 30000 nM; EC50 (CCRF-CEM; Homo sapiens, relative EC50, 96 hours, read-out: Re EC50): 51 nM
